One data set has as its target T1, NOX2 (Homo sapiens, UniProt P14598).
T1 construct: HL-60 cells expressed the components of NOX2, including gp91, p22^phox, p47^phox, and p67^phox; endogenous in cells; whole cells in A1, membrane preparations in A3 and A4
T1 sequence (P14598 1-390): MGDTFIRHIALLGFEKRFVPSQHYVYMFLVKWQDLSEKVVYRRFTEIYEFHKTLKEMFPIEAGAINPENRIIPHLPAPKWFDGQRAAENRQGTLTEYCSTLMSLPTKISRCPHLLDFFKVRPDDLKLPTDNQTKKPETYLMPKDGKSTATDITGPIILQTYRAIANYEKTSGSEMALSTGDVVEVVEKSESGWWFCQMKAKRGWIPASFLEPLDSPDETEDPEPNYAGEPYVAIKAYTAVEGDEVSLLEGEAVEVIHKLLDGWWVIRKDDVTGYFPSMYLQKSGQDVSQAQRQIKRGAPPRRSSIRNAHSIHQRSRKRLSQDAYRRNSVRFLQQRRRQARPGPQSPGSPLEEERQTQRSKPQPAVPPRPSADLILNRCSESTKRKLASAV
As to the kind of experiment: NADPH oxidase (NOX2) inhibition, DCF fluorescence in PMA-activated neutrophil-differentiated HL-60 cells. Type of data set: cell-based. The conditions noted are these: for inhibition of NOX2-derived ROS production (in words): PMA-activated HL-60 cells, 0.05 µM to 50 µM; for IC50: neutrophil-differentiated HL-60 cells, PMA 0.8 µM, DCF fluorescence, 0.05 to 50 µM. The method, then: The differentiation of HL-60 cells to neutrophils was performed after reaching a concentration of between 2 × 10^6 and 5 × 10^6 cells/mL in the differentiation medium: RPMI 1640 medium; 10% FBS; 100 IU/mL of penicillin/streptomycin; and 1.3% DMSO for 7 days, replenishing the differentiation medium every 2 days.
The 2′,7′-dichlorofluorescein (DCF) fluorescence analysis was used to determine NADPH oxidase activity in neutrophil-differentiated HL-60 cells. The method, based on a fluorimetric assay, was adapted from Boly et al.. Briefly, 1 × 10^6 neutrophil-differentiated HL-60 cells/mL were incubated for 45 min. at 37 °C in darkness with DCF-DA (1 mg/mL). The cell suspension was then transferred to a 15 mL conical tube and centrifuged at 330× g × 10 min at 37 °C. After the supernatant was removed, the cells were re-suspended in Hanks balanced saline buffer (HBSS, Sigma-Aldrich, St. Louis, MO, USA) and transferred to dark 96-well plates with a flat glass bottom (Thermo Scientific Nunc 96 microwell® black, Optical Botton # 1.5 Cover Glass Base, Thermo Fisher Scientific). Then, 200 μL of cell suspension per well were incubated at 37 °C for 30 min with the indole heteroaryl-acrylonitriles at increasing concentrations (0.05 to 50 μM). […] Finally, PMA (0.8 μM) was added to each well for 10 min. to generate the activation of NOX2. The generation of the DCF fluorescence product was monitored in an automatic microplate reader (FLx800, BioTek Instruments, Winooski, VT, USA) at 1-min intervals at 37 °C for 1 h, using an excitation wavelength of 485 nm and an emission wavelength of 555 nm. The ability to inhibit ROS production by activated neutrophil-differentiated HL-60 cells was compared against the different controls. A control was performed with cells activated by PMA in the presence of DMSO and established as having 100% of the ROS-induced fluorescence. Inhibition control was performed in the presence of VAS2870 (20 µM) and activated by PMA. Another control (NA, not activated) was done with cells in the absence of PMA and the indole heteroaryl-acrylonitriles.
All the experiments were performed in triplicate, using three different cell preparations, and the data were reported as mean ± s.e.m. For the determination of the IC50 of the indole heteroaryl-acrylonitriles, concentration-response curves (0.05 to 50 μM) were constructed. IC50 values were given as the mean ± standard deviation for at least three independent assays. The data were analyzed using one- and two-way ANOVA. A value of p < 0.05 was considered statistically significant. Statistical analyses were performed using the program GraphPad Prism® version 6.00, San Diego, CA, USA.

In the next data set the test system is HL-60 cells. Nature of the data set: MTT cytotoxicity assay. The conditions noted are these: 72 h; for cytotoxicity (in words): 0.01 µM to 100 µM, MTT. Type of data set: cell-based, human. The method, then:
To verify the cytotoxicity of the acrylonitrile derivatives, the MTT reduction method was performed. Briefly, HL-60 cells were seeded in a flat-bottomed 96-well plate at a density of 10,000 cells per well. […] In a second series of experiments, cells were incubated under the same conditions but for 72 h. Etoposide was used as a positive control. Ten μL of MTT was added at a final concentration of 0.5 mg/mL, incubated at 37 °C for 4 h, and then solubilized with 10% SDS in 0.1 mM HCl and incubated overnight at 37 °C. Finally, a blue-colored compound (formazan) formation was measured at 570 nm in a multiplate reader (StatFax 4200, Awareness Technology, Inc., Palm City, FL, USA). The viability percentage was obtained as follows: Viability % = [treated cells DO × 100]/[DO cells control].
(Tetrazolium dyes change colour on reduction, which living cells bring about.)

This note sets out measurements from publication PMC10376059, “New NADPH Oxidase 2 Inhibitors Display Potent Activity against Oxidative Stress by Targeting p22^phox-p47^phox Interactions” (Antioxidants, 2023).

The structures appear in SMILES notation.

Usually IC50 stands for the midpoint of a concentration-inhibition curve. With `N#C/C(=C\c1cc(-c2ccccc2)on1)C(=O)c1c[nH]c2ccccc12` [Compound C6], at NOX2, the “inhibition of NOX2-derived ROS production (in words)” value is given as “exhibited concentration-dependent inhibition of NOX2” and the IC50 was 1.1 ± 0.2 µM. The “cytotoxicity (in words)” value in the data set with HL-60 cells is reported as “non-cytotoxic”. For the same compound, the cytotoxicity result in the data set with HL-60 cells (1 µM (corresponding to the IC50 value)) is “about 55%”.
Take `N#C/C(=C\c1ccncc1)C(=O)c1c[nH]c2ccccc12` [Compound C14]: on NOX2, the “inhibition of NOX2-derived ROS production (in words)” value was “exhibited concentration-dependent inhibition of NOX2” and the midpoint of inhibition, the IC50, lay at 3.6 ± 0.2 µM. Also, the “cytotoxicity (in words)” value with HL-60 cells was “non-cytotoxic”.
